In patent US20260335388A1, “COMBINATION THERAPIES WITH ONCOLYTIC ADENOVIRUS AND TOPOISOMERASE I INHIBITORS OR PRODRUGS THEREOF” (priority 2022, published 2026):
Read-outs that look alike come from different tables or passages of the source.

Experiments:
[1] = system: HSJD-RBVS-10 retinoblastoma cells; assay: cells; format: cell-based; settings: Homo sapiens
[2] = system: HSJD-RBT-5 retinoblastoma cells; assay: cells; format: cell-based; settings: Homo sapiens
[3] = system: retinoblastoma cells; format: cell-based
[4] = system: HSJD-RBT-7 retinoblastoma cells; assay: cells; format: cell-based; settings: Homo sapiens
[5] = system: Y79 retinoblastoma cells; assay: cells; format: cell-based
[6] = system: E1a; assay: Immunoblot of E1a / E2F-1 in VCN-01-infected Y79 cells with further chemotherapeutics; format: cell-based; settings: for expression of VCN-01 proteins (E1a): VCN-01 50 MOI, drug added at 24 h, lysis at 48 h (FIG. 7); for expression of E2F-1 and E1A: Y79 cells pre-exposed to VCN-01 (FIG. 13H)
Experimental: 2 million Y79 retinoblastoma cells were infected with 50 MOIs of VCN-01. […] Etoposide is topoisomerase 2 inhibitor.
In all experiments, 6-well culture plates containing 2×10^6 cells were used. […] The experiments were controlled by adding culture medium instead of the second treatment. […] The analyses were expanded to other chemotherapeutic agents including hydroxyurea ([…]), etoposide (2 μM), irinotecan (10 μM) or SN-38 (1 μM).
Near-infrared labeled secondary antibodies (Odyssey CLx, LI-COR Inc. Bad Homburg, Germany) were used for detection.

[7] = system: HSJD-NB-005 neuroblastoma; assay: Antitumor activity in neuroblastoma PDX HSJD-NB-005; format: in vivo, mouse; settings: single treatment (FIG. 24D,F)
Experimental: PDX of neuroblastoma (pediatric solid tumor) were implanted subcutaneously into athymic nude mice. Tumor model was HSJD-NB-005. Upon engraftment (tumor volumes ranging 100-500 mm^3), treatments were started. The activity of topotecan vs. irinotecan in combination with VCN-01 was evaluated. The following groups of mice were included in the study, with an n of 6 tumors per group: • Group 1: no treatment • Group 2: topotecan i.p. at 0.6 mg/kg, Day 1-5 • Group 3: irinotecan i.p. at 10 mg/kg, Day 1-5 • Group 4: VCN-01 i.t at 3E9 vp/tumor, Day 1 • Group 5: VCN-01 i.t at 3E9 vp/tumor, Day 1 (morning)+topotecan i.p. at 0.6 mg/kg, Day 1-5 • Group 6: VCN-01 i.t at 3E9 vp/tumor, Day 1 (morning)+irinotecan i.p. at 10 mg/kg, Day 1-5
Antitumor activity in extracranial pediatric solid tumors. 5-10 mm^3 fresh fragments of Ewing sarcoma or neuroblastoma PDX were implanted in both flanks of mice. Upon s.c. engraftment (tumor volume 150-200 mm^3), mice received topotecan (0.6 mg/kg, i.p., days 1-5), VCN-01 (3×10^9 vp in 20 µL vehicle, intratumoral, day 1), or the combination. In two additional groups, an alternative topoisomerase 1 inhibitor, irinotecan (10 mg/kg, i.p., on days 1-5) we used in place of topotecan. Upon completion of treatments, tumor volumes were followed until endpoint (1500 mm^3), or until day 80.

[8] = system: Y79 tumors; format: in vivo, mouse; settings: systemic drug after intratumoral VCN-01 3×10E^9 vp/tumor; 5 or 15 days (FIGS. 2A-B)
[9] = system: Y79 cells and primary retinoblastoma cultures; format: cell-based
[10] = read-out: IC50, Melphalan single agent
[11] = read-out: IC50, Melphalan with VCN-01 (10 MOI)

## N[C@@H](Cc1ccc(N(CCCl)CCCl)cc1)C(=O)O [Melphalan, melphalan]
[1]; [10]
  IC50: 241 nM
[1]; [11]
  IC50: 2020 nM
[2]; [10]
  IC50: 478 nM
[2]; [11]
  IC50: 636 nM
[3]
  cell sensitivity to drug after VCN-01 infection: decreased cell sensitivity
[4]; [10]
  IC50: 1420 nM
[4]; [11]
  IC50: 8480 nM
[5]; [10]
  IC50: 3250 nM
[5]; [11]
  IC50: 5830 nM

## CCc1c2c(nc3ccc(OC(=O)N4CCC(N5CCCCC5)CC4)cc13)-c1cc3c(c(=O)n1C2)COC(=O)[C@]3(O)CC [irinotecan]
[6]
  expression of VCN-01 proteins (E1a): does not work in vitro
[7]
  response of xenograft to single treatment: highly resistant

## SN-38
[6]
  expression of VCN-01 proteins (E1a): increases expression of VCN-01 proteins
  expression of E2F-1 and E1A: increased the expression of E2F-1 and E1A similarly to topotecan

## COc1cc([C@@H]2c3cc4c(cc3[C@@H](O[C@@H]3O[C@@H]5CO[C@@H](C)O[C@H]5[C@H](O)[C@H]3O)[C@H]3COC(=O)[C@H]23)OCO4)cc(OC)c1O [etoposide]
[6]
  expression of VCN-01 proteins (E1a): does not induce the same effect
  expression of E2F-1 and E1A: did not modify the levels of these proteins

## NC(=O)NO [hydroxyurea]
[8]
  VCN-01 genome content in tumors: the enhancement of VCN-01 replication in vivo appears to be specific to topotecan
[6]
  expression of E2F-1 and E1A: did not modify the levels of these proteins
[9]; cells pre-infected with AdTLRGDK (FIG. 18E, FIG. 19A)
  transgene expression, virus first: increased transgene expression
[9]; drug exposure before viral infection (FIG. 18E)
  viral transduction, drug first: did not enhance viral transduction
